# Laboratory results taken from patent publication US20230346889A9, “TREATMENT OF ACUTE HEART FAILURE” (AnaCardio R&D AB, priority 2019, published 2023).
# Entries after “also recorded” stand apart in the source; their conditions may differ.
# Test system: patients with advanced CHF and reduced EF
# Assay: Randomized double-blind placebo-controlled trial of intravenous acyl ghrelin: non-invasive hemodynamics (Innocor, Nexfin)
# Type: in vivo
# Source text: Between 17 Feb. 2013 and 19 May 2015 we conducted a prospective double-blind, placebo-controlled, parallel-group, single centre randomized clinical trial with a one-time treatment of intravenous acyl ghrelin or placebo.
# Patients were pre-screened in the Karolinska University Hospital heart failure clinic (FIG. 1) and had symptoms and signs of advanced CHF (New York Heart Association [NYHA] class III-IV) and an EF of ≤40%.
# Ghrelin is a 28 amino acid peptide with a molecular weight of 3,371 g/mol. Half-time in plasma is 24-30 minutes. Concentrations in normal humans has variably been reported at 100-300 pmol/L (300-900 ng/L) for total ghrelin. There is limited data on acyl ghrelin but we recently measured acyl ghrelin in 41 healthy non-obese adults: fasting: mean±SD: 118±14 ng/L, 5-95th percentile 27-328 ng/L; trough 60 minutes post 260 kcal mixed meal: 80±12 ng/L, 5-95th percentile 21-293 ng/L. Synthetic acylated (active) human ghrelin (brand name Clinalfa Ghrelin (human) Acetate, product number 4071265; Bachem, Hauptstrasse 144, 4416 Bubendorf, Switzerland—hereafter referred to as ghrelin, was purchased from Bachem (Bubendorf, Switzerland) under license from Daiichi Sankyo (Tokyo, Japan). For each patient and treatment, a stock solution was prepared consisting of multiple vials of powder ghrelin (100 μg ghrelin/vial together with phosphate buffer), each vial dissolved in 1 mL sterile water for infusion (B. Braun, Germany) and visually inspected to be a clear and colorless solution, prior to adding 0.001 g (0.02 ml of 50 g/L stock) human albumin (for concentration 0.001 g/mL=0.1%) to each vial and further mixed with normal saline (NaCl 9 mg/ml, B. Braun, Germany). The proportion of stock solution and saline were according to patient weight (Table 2), resulting in a total volume of 100 mL (to ensure the same volume infusion for all patients). The final intravenous infusion rate was 0.50 mL/min volume (total volume 60 mL), equivalent to 0.1 μg (30 pmol)/kg/min (total amount 12.0 μg/kg) of acyl ghrelin administered to all patients randomized to ghrelin. The infusion was given for 120 minutes and continued until all measurements at 120 minutes had been completed (thus delivering some additional ghrelin). The median total infusion duration was 171 minutes. Measurements were repeated 30 minutes after stopping infusion.
# Patients were randomized in parallel by block randomization in groups of 4 using paper envelopes to ghrelin or placebo and the infusion was given by antecubital vein over 120 minutes. A dedicated study nurse prepared ghrelin and placebo for infusion and patients and all other investigators were blinded. Immediately prior to, during, and after the 120 minute infusion and also 30 minutes after stopping the infusion, blood samples were drawn and symptoms, signs, echocardiography, ECG, and non-invasive hemodynamics were assessed (FIG. 2). Patients were discharged to home and returned 2-5 days later for repeat measurements. Patients were followed prospectively for morbidity and mortality outcomes.
# Non-invasive resting CO in was assessed in duplicate at each measurement using the Innocor® device (Innovision, Odense, Denmark). The Innocor is a non-invasive device that measures pulmonary blood flow using an inert gas rebreathing technique, and measures VO2 directly. It has been validated for CO and VO2 at rest and exercise (Gabrielsen et al., 2002; Stahlberg et al., 2009).
# The Innocor® directly measures pulmonary blood flow, VO2 and SpO2. From these variables, shunt fraction, cardiac output, SVO2 and A-V O2 difference was then calculated using standard formulas. Beat-by-beat ECG, blood pressure and the first derivative of the pressure signal (+dP/dt) were measured using a Nexfin® device (described below). Fifteen minutes of continuous beat-by-beat Nexfin data were averaged at the time of Innocor measurements. Estimated systemic vascular resistance (eSVR) was subsequently calculated as mean blood pressure/cardiac output×80. […]
structure (smiles),measurement,setting,value
CCCCCCCC(=O)OC[C@H](NC(=O)[C@H](CO)NC(=O)CN)C(=O)N[C@@H](Cc1ccccc1)C(=O)N[C@@H](CC(C)C)C(=O)N[C@@H](CO)C(=O)N1CCC[C@H]1C(=O)N[C@@H](CCC(=O)O)C(=O)N[C@@H](Cc1cnc[nH]1)C(=O)N[C@@H](CCC(N)=O)C(=O)N[C@@H](CCCNC(=N)N)C(=O)N[C@H](C(=O)N[C@@H](CCC(N)=O)C(=O)N[C@@H](CCC(N)=O)C(=O)N[C@@H](CCCNC(=N)N)C(=O)N[C@@H](CCCCN)C(=O)N[C@@H](CCC(=O)O)C(=O)N[C@@H](CO)C(=O)N[C@@H](CCCCN)C(=O)N[C@@H](CCCCN)C(=O)N1CCC[C@H]1C(=O)N1CCC[C@H]1C(=O)N[C@@H](C)C(=O)N[C@@H](CCCCN)C(=O)N[C@@H](CC(C)C)C(=O)N[C@@H](CCC(N)=O)C(=O)N1CCC[C@H]1C(=O)N[C@@H](CCCNC(=N)N)C(=O)O)C(C)C [Ghrelin],A-V O2-diff,2-5 day follow-up visit,27.4 ± 10.0 %
same,CO,2-5 day follow-up visit,4.21 ± 1.27 L/min
same,HR,2-5 day follow-up visit,71.6 ± 10.8 bpm
same,PBF,2-5 day follow-up visit,3.58 ± 0.74 L/min
same,SV,2-5 day follow-up visit,59.9 ± 18.5 mL
same,Shunt,2-5 day follow-up visit,15.7 ± 16.7%
same,SpO2,2-5 day follow-up visit,94.0 ± 3.9+ %
same,SvO2,2-5 day follow-up visit,66.4 ± 18.4 %
same,VO2,2-5 day follow-up visit,0.22 ± 0.06 L/min
same,CO compared to placebo group,2-5 days follow-up,still a significant increase in CO
same,A-V O2 diff,30 min after stop Infusion,21.6 ± 12.1%
same,CO,30 min after stop Infusion,4.94 ± 1.70 L/min
same,PBF,30 min after stop Infusion,4.14 ± 0.97 L/min
same,SV,30 min after stop Infusion,74.31 ± 26.09 mL
same,Shunt,30 min after stop Infusion,12.6 ± 14.3%
same,SpO2,30 min after stop Infusion,94.7 ± 3.9%
same,SvO2,30 min after stop Infusion,73.3 ± 12.8%
same,VO2,30 min after stop Infusion,0.19 ± 0.08 L/min
same,dBP,30 min after stop Infusion,58.9 ± 7.5 mmHg
same,dP/dt,30 min after stop Infusion,602 ± 252 mmHg/s
same,mBP,30 min after stop Infusion,75.5 ± 12.0 mmHg
same,sBP,30 min after stop Infusion,105.7 ± 20.5 mmHg
same,A-V O2 diff,Baseline,27.6 ± 14.3%
same,CO,Baseline,4.08 ± 1.15 L/min
same,PBF,Baseline,3.61 ± 0.70 L/min
same,SV,Baseline,59.10 ± 17.82 mL
same,Shunt,Baseline,9.9 ± 10.6%
same,SpO2,Baseline,95.2 ± 3.4%
same,SvO2,Baseline,67.9 ± 14.4%
same,VO2,Baseline,0.20 ± 0.07 L/min
same,dBP,Baseline,58.6 ± 8.4 mmHg
same,dP/dt,Baseline,742 ± 267 mmHg/s
same,mBP,Baseline,74.9 ± 11.3 mmHg
same,sBP,Baseline,104.7 ± 18.4 mmHg
same,A-V O2-diff,Baseline (Table 8),24.4 ± 7.6%
same,CO,Baseline (Table 8),4.08 ± 1.15 L/min
same,HR,Baseline (Table 8),69.6 ± 9.1 bpm
same,PBF,Baseline (Table 8),3.61 ± 0.70 L/min
same,SV,Baseline (Table 8),59.9 ± 19.0 mL
same,Shunt,Baseline (Table 8),9.9 ± 10.6%
same,SpO2,Baseline (Table 8),95.2 ± 3.4%
same,SvO2,Baseline (Table 8),67.7 ± 14.3%
same,VO2,Baseline (Table 8),0.2 ± 0.07 L/min
same,A-V O2 diff,Infusion + 60 min,23.6 ± 12.9 %
same,CO,Infusion + 60 min,4.64 ± 1.31 L/min
same,PBF,Infusion + 60 min,3.76 ± 0.76 L/min
same,SV,Infusion + 60 min,69.64 ± 22.75 mL
same,Shunt,Infusion + 60 min,16.8 ± 11.8 %
same,SpO2,Infusion + 60 min,93.5 ± 3.5 %
same,SvO2,Infusion + 60 min,70.0 ± 13.8%
same,VO2,Infusion + 60 min,0.19 ± 0.07 L/min
same,dBP,Infusion + 60 min,56.5 ± 8.7 mmHg
same,dP/dt,Infusion + 60 min,535 ± 213 mmHg/s
same,mBP,Infusion + 60 min,71.4 ± 10.2 mmHg
same,sBP,Infusion + 60 min,99.0 ± 17.6 mmHg
same,A-V O2 diff,Infusion + 120 min,20.9 ± 8.5 %
same,CO,Infusion + 120 min,5.23 ± 1.98 L/min
same,PBF,Infusion + 120 min,4.08 ± 0.90 L/min
same,SV,Infusion + 120 min,79.83 ± 30.30 mL
same,Shunt,Infusion + 120 min,18.0 ± 12.3 %
same,SpO2,Infusion + 120 min,93.4 ± 3.6 %
same,SvO2,Infusion + 120 min,71.7 ± 10.1%
same,VO2,Infusion + 120 min,0.19 ± 0.08 L/min
same,dBP,Infusion + 120 min,56.1 ± 10.3 mmHg
same,dP/dt,Infusion + 120 min,531 ± 191 mmHg/s
same,mBP,Infusion + 120 min,70.9 ± 13.1 mmHg
same,sBP,Infusion + 120 min,99.0 ± 21.1 mmHg
same,change in HR,between baseline and 120 minutes,fell slightly
same,change in calculated SV,during and after infusion,increased with infusion and fell after stop of infusion
same,"change in systolic, diastolic and mean arterial blood pressure",during and after infusion,no changes or differences in changes; also recorded: no changes in blood pressure; also recorded: no effect
same,change in CO,"during and after infusion, primary outcome",increased with infusion and fell after stop of infusion
same,change in oxygen consumption (VO2),in vivo,no change
same,change in pulmonary blood flow,in vivo,increased
same,change in estimated SVR,with infusion,fell and decrease
